Measurements from patent publication EP4534147A1, “STING ANTAGONIST COMPOUNDS” (Sulis Therapeutics ApS, priority 2023, dated 2025).

Tests used:
STING = target: T1, STING (Homo sapiens, UniProt Q86WV6); assay: Human FB STING antagonist assay (IFN-a/b release); type: cell-based; conditions: Human skin fibroblasts, 2h pre-treatment, 300 nM GSK STING agonist (CAS number: 2138299-34-8) for 20 h, release of IFN-a/b by HEK-Blue IFN-α/β bioassay
T1 construct: endogenous in cells; host or cells: human skin fibroblasts
T1 sequence (Q86WV6 whole entry): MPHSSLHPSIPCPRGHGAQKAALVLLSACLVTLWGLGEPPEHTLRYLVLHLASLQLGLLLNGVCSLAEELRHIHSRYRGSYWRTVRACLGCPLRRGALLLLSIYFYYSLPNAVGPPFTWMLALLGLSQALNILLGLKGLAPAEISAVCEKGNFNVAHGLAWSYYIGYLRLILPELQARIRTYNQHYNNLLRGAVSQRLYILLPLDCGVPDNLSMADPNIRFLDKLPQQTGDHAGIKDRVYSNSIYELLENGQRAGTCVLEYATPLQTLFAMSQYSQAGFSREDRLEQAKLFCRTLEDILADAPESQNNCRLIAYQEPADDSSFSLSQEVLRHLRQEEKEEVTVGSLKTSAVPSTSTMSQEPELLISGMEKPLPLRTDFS
Protocol: STING antagonist activity can be determined by a human fibroblast antagonist assay. For this, human skin fibroblasts are pre-treated for 2h with a serial dilution of the compound, and are then stimulated for 20 hours with 300 nM STING agonist (e.g. from GSK, CAS number: 2138299-34-8). Supernatants are then harvested and assessed for IFN-a/b release, which indicates STING activation. IFN-a/b concentration in the supernatant is determined, e.g. using an IFN-α/β bioassay. IC50 values are calculated using a non-linear regression fitting, variable slope (4 parameters).
Human skin fibroblasts were pre-treated for 2h with a serial dilution of test compound followed by stimulation with mock or 300 nM GSK STING agonist (CAS number: 2138299-34-8). Supernatants were harvested after 20 h of STING agonist stimulation. Release of IFN-a/b was determined using HEK-Blue IFN-α/β bioassay (Invivogen). Cellular viability was assessed using Alamar Blue HS assay. IC50 values were estimated using a non-linear regression fitting, variable slope (4 parameters) in GraphPad Prism 9.3.1.

[1] = target: T2, C-terminal domain (CTD) of human STING (Homo sapiens, UniProt Q86WV6); assay: STING binding TR-FRET assay (CisBio Human STING WT Binding Kit); parameters: purchased CisBio 64BDSTGPEG; conditions: recombinant human STING with His-tag, D2-labeled active site probe, 60 min at room temperature
Protocol: STING binding can be determined by a time-resolved FRET assay. For instance, a STING protein having a His-tag can be used. A D2-labeled active site probe can be used to accept 620 nm emission from Anti-HIS-Tb-STING. Increased fluorescence is measured at 665 nm. Molecules that compete for the probe binding site will result in a lower 665 nm signal. The assay can be performed in low-volume white 96-well plates containing 5 µL compounds in an appropriate diluent buffer. Following 60 minutes incubation at room temperature in the dark, fluorescence emission at 665 nm is measured following 330 nm xenon flash excitation. pIC50 values can be determined using a standard four parameter curve fit.
The affinity of molecules to the C-terminal domain (CTD) of human STING was determined using a commercial Human STING WT Binding Kit (CisBio, cat.# 64BDSTGPEG). In this time-resolved FRET assay, a recombinant human STING protein construct with a His-tag was employed. When bound to STING, a D2-labeled active site probe accepts the 620 nm emission from Anti-HIS-Tb-STING and an increase in fluorescence is measured at 665 nm. Molecules that compete for the probe binding site will result in a low 665 nm signal. The assay was run in CisBio low-volume white 96-well plates (catalog# 66PL96005) containing 5 µL compounds in Diluent Buffer (supplied with the CisBio kit). A solution of 1xSTING, 1x Anti-HIS-Tb and 1X D2-probe in TB detection buffer (kit supplied) was added to the plate. Plates were centrifuged for 2 min at 500 rpm, incubated for 60 min at room temperature in the dark, and then fluorescence emission at 665 nm following 330 nm xenon flash excitation on an BioTek synergy H1 multimode reader (Agilent) was measured. The plC50 values were determined using a standard four parameter curve fit in GraphPad Prism.
Target sequence in this assay (Q86WV6 135-379 limits assumed): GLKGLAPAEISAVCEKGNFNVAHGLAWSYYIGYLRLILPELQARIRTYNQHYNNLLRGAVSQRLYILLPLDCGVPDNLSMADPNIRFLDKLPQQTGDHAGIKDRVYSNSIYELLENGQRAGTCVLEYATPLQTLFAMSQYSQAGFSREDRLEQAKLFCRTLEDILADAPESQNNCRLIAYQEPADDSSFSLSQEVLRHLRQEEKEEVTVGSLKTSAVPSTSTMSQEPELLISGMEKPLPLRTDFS

[2] = target: T2, C-terminal domain (CTD) of human STING; assay: STING binding FP assay II (as FP assay I, lower STING concentration); parameters: recombinant human STING protein (155-379); conditions: 7 nM STING in buffer A, 4 nM fluorescein-labelled STING ligand (Probe 1)
Protocol: (§1) The interaction between molecules and the C-terminal domain (CTD) of human STING was evaluated using a competition binding assay. In this assay, recombinant human STING protein (155-379) and a STING binding fluorescent probe were employed. Upon binding of the probe to STING, the rotation of the fluorescent probe is slowed due to the larger molecular size of the protein-bound complex. As a result, emitted light retains its plane of polarization, leading to an increase in fluorescence polarization. Molecules competing for the probe binding site displace the probe, which leads to rapid randomization of the polarization plane of the emitted light and a subsequent decrease in measured fluorescence polarization signal. Change in polarization was measured, allowing a comparative evaluation of the binding affinities of different compounds to the target protein.
(§2) The assay was performed in 96-well plates (ThermoFisher, cat.# 237108) containing 100 µl : 10 µL test compound in 10% DMSO and buffer A (150 mM NaCl, 50 mM HEPES pH 7.5, 1 mM DTT) + 90 µL prepared master mix solution of: 4 nM fluorescein-labelled STING ligand (Probe 1; synthesis described above) in buffer A + 0.055% Tween-20 (v/v) and 35 nM STING in buffer A. Post mixing, plates were agitated at 600 rpm and incubated for 20 min at room temperature. Subsequent measurements of the fluorescence polarization signal were made on a BioTek Synergy-H1 plate reader, using a polarization filter; excitation: 485/20 nm, emission: 528/20 nm) with a gain-setting of 75. IC50 values were determined using a standard non-linear regression four-parameter curve fit in Graphpad Prism.
The procedure for STING binding FP assay II is the same as described for STING binding FP assay I, except for a lower STING concentration. In STING binding FP assay II, a concentration of 7 nM STING in buffer A was used.
Target sequence in this assay (Q86WV6 155-379): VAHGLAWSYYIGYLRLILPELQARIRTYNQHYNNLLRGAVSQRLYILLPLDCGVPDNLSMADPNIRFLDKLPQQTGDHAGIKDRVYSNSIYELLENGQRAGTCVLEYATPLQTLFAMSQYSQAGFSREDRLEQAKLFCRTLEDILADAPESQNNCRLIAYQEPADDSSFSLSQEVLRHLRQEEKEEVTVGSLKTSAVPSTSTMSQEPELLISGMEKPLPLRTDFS

[3] = target: T2, C-terminal domain (CTD) of human STING; assay: STING binding FP assay I (fluorescence polarization competition binding); parameters: recombinant human STING protein (155-379); conditions: recombinant human STING protein (155-379), 35 nM STING, 4 nM fluorescein-labelled STING ligand (Probe 1), 20 min at room temperature
Protocol: as §1, §2
Target sequence in this assay (Q86WV6 155-379): as above

| SMILES | IC50 (STING) [nM] | IC50 [1] [nM] | IC50 [2] [nM] | IC50 [3] [nM] |
| --- | --- | --- | --- | --- |
| CCn1nc(C)cc1C(=O)N=c1n(C)c2cc(C(N)=O)ccc2n1CCC(CCn1c(=NC(=O)c2cc(C)nn2CC)n(C)c2cc(C(N)=O)ccc21)OCC(=O)N1CCC[C@H]1c1cccc(OC)c1 (stereo partly drawn) [Example 11, 1-(3-{2-[(S)-2-(3-Methoxyphenyl)-1-pyrrolidinyl]-2-oxoethoxy}-5-{5-carbamoyl-2-[(1-ethyl-3-methyl-5-pyrazolyl)carbonylimino]-3-methyl-2,3-dihydro-1H-1 ,3-benzimidazol-1-yl}pentyl)-2-[(1-ethyl-3-methyl-5-pyrazolyl)carbonylimino]-3-methyl-2,3-dihydro-1H-1,3-benzimidazole-5-carboxamide] | 3400 | 0.862 | 2 | – |
| CCn1nc(C)cc1C(=O)N=c1n(C)c2cc(C(N)=O)ccc2n1CCC(CCn1c(=NC(=O)c2cc(C)nn2CC)n(C)c2cc(C(N)=O)ccc21)OCC(=O)N1CCC[C@@H]1c1ccc(OC)cc1 (stereo partly drawn) [Example 20, 1-(3-{2-[(R)-2-(p-Methoxyphenyl)-1-pyrrolidinyl]-2-oxoethoxy}-5-{5-carbamoyl-2-[(1-ethyl-3-methyl-5-pyrazolyl)carbonylimino]-3-methyl-2,3-dihydro-1H-1,3-benzimidazol-1-yl}pentyl)-2-[(1-ethyl-3-methyl-5-pyrazolyl)carbonylimino]-3-methyl-2,3-dihydro-1H-1,3-benzimidazole-5-carboxamide] | – | 0.95 | – | – |
| CCOC(=O)COC(CCn1c(=NC(=O)c2cc(C)nn2CC)n(C)c2cc(C(N)=O)ccc21)CCn1c(=NC(=O)c2cc(C)nn2CC)n(C)c2cc(C(N)=O)ccc21 (stereo not shown) [Example 2, Ethyl (3-{5-carbamoyl-2-[(1-ethyl-3-methyl-5-pyrazolyl)carbonylimino]-3-methyl-2,3-dihydro-1H-1,3-benzimidazol-1-yl}-1-(2-{5-carbamoyl-2-[(1-ethyl-3-methyl-5-pyrazolyl)carbonylimino]-3-methyl-2,3-dihydro-1H-1,3-benzimidazol-1-yl}ethyl)propoxy)acetate] | 2500 | – | – | < 30 |
| CCn1nc(C)cc1C(=O)N=c1n(C)c2cc(C(N)=O)ccc2n1CCC(CCn1c(=NC(=O)c2cc(C)nn2CC)n(C)c2cc(C(N)=O)ccc21)OCC(=O)Nc1ccncn1 (stereo not shown) [Example 8, 1-{3-[(N-4-Pyrimidinylcarbamoyl)methoxy]-5-{5-carbamoyl-2-[(1-ethyl-3-methyl-5-pyrazolyl)carbonylimino]-3-methyl-2,3-dihydro-1H-1,3-benzimidazol-1-yl}pentyl}-2-[(1-ethyl-3-methyl-5-pyrazolyl)carbonylimino]-3-methyl-2,3-dihydro-1H-1,3-benzimidazole-5-carboxamide] | 4700 | – | – | < 30 |
| CCn1nc(C)cc1C(=O)N=c1n(C)c2cc(C(N)=O)ccc2n1CCC(CCn1c(=NC(=O)c2cc(C)nn2CC)n(C)c2cc(C(N)=O)ccc21)OCC(=O)NC(C)C (stereo not shown) [Example 5, 1-{3-[(N-lsopropylcarbamoyl)methoxy]-5-{5-carbamoyl-2-[(1-ethyl-3-methyl-5-pyrazolyl)carbonylimino]-3-methyl-2,3-dihydro-1H-1,3-benzimidazol-1-yl}pentyl}-2-[(1-ethyl-3-methyl-5-pyrazolyl)carbonylimino]-3-methyl-2,3-dihydro-1H-1,3-benzimidazole-5-carboxamide] | – | 0.38 | – | < 30 |
| CCn1nc(C)cc1C(=O)N=c1n(C)c2cc(C(N)=O)ccc2n1CCC(CCn1c(=NC(=O)c2cc(C)nn2CC)n(C)c2cc(C(N)=O)ccc21)OCC(=O)O (stereo not shown) [Example 3, (3-{5-Carbamoyl-2-[(1-ethyl-3-methyl-5-pyrazolyl)carbonylimino]-3-methyl-2,3-dihydro-1H-1,3-benzimidazol-1-yl}-1-(2-{5-carbamoyl-2-[(1-ethyl-3-methyl-5-pyrazolyl)carbonylimino]-3-methyl-2,3-dihydro-1H-1,3-benzimidazol-1-yl}ethyl)propoxy)acetic acid] | – | 0.452 | – | < 30 |
| CCn1nc(C)cc1C(=O)N=c1n(C)c2cc(C(N)=O)ccc2n1CCC(CCn1c(=NC(=O)c2cc(C)nn2CC)n(C)c2cc(C(N)=O)ccc21)OCC(=O)N1[C@H](C)COC[C@@H]1C (stereo partly drawn) [Example 17, 1-(3-{2-[(3R,5S)-3,5-Dimethyl-4-morpholinyl]-2-oxoethoxy}-5-{5-carbamoyl-2-[(1-ethyl-3-methyl-5-pyrazolyl)carbonylimino]-3-methyl-2,3-dihydro-1H-1,3-benzimidazol-1-yl}pentyl)-2-[(1-ethyl-3-methyl-5-pyrazolyl)carbonylimino]-3-methyl-2,3-dihydro-1H-1,3-benzimidazole-5-carboxamide] | – | 0.54 | – | – |
| CCn1nc(C)cc1C(=O)N=c1n(C)c2cc(C(N)=O)ccc2n1CCC(CCn1c(=NC(=O)c2cc(C)nn2CC)n(C)c2cc(C(N)=O)ccc21)OCC(=O)NC1CCN(C)CC1 (stereo not shown) [Example 10, 1-{3-[(N-1-Methyl-4-piperidylcarbamoyl)methoxy]-5-{5-carbamoyl-2-[(1-ethyl-3-methyl-5-pyrazolyl)carbonylimino]-3-methyl-2,3-dihydro-1H-1,3-benzimidazol-1-yl}pentyl}-2-[(1-ethyl-3-methyl-5-pyrazolyl)carbonylimino]-3-methyl-2,3-dihydro-1H-1,3-benzimidazole-5-carboxamide] | – | 0.869 | 3.5 | – |
| CCn1nc(C)cc1C(=O)N=c1n(C)c2cc(C(N)=O)ccc2n1CCC(CCn1c(=NC(=O)c2cc(C)nn2CC)n(C)c2cc(C(N)=O)ccc21)OCC(=O)N(Cc1ccc(OC)cc1)C1CC1 (stereo not shown) [Example 14, 1-[3-({N-Cyclopropyl[(p-methoxyphenyl)methyl]carbamoyl}methoxy)-5-{5-carbamoyl-2-[(1-ethyl-3-methyl-5-pyrazolyl)carbonylimino]-3-methyl-2,3-dihydro-1H-1,3-benzimidazol-1-yl}pentyl]-2-[(1-ethyl-3-methyl-5-pyrazolyl)carbonylimino]-3-methyl-2,3-dihydro-1H-1,3-benzimidazole-5-carboxamide] | – | 0.659 | – | – |
